# From publication PMC3161871, “Heteroarylketones inhibit astroglial interleukin-6 expression via a STAT3/NF-κB signaling pathway” (Journal of Neuroinflammation, 2011)
# How the values were obtained:
# [1] = molecular target: T1, human recombinant prolyl endopeptidase (PREP) (Homo sapiens, UniProt P48147); assay: PREP enzymatic activity assay (Z-Gly-Pro-pNA, photometric); format: biochemical; settings: recombinant PREP, Z-Gly-Pro-pNA 62.5/125/250 μM, pH 7.6, 30°C, competitive fit
# T1 construct: made in house
# T1 sequence (P48147 1-710): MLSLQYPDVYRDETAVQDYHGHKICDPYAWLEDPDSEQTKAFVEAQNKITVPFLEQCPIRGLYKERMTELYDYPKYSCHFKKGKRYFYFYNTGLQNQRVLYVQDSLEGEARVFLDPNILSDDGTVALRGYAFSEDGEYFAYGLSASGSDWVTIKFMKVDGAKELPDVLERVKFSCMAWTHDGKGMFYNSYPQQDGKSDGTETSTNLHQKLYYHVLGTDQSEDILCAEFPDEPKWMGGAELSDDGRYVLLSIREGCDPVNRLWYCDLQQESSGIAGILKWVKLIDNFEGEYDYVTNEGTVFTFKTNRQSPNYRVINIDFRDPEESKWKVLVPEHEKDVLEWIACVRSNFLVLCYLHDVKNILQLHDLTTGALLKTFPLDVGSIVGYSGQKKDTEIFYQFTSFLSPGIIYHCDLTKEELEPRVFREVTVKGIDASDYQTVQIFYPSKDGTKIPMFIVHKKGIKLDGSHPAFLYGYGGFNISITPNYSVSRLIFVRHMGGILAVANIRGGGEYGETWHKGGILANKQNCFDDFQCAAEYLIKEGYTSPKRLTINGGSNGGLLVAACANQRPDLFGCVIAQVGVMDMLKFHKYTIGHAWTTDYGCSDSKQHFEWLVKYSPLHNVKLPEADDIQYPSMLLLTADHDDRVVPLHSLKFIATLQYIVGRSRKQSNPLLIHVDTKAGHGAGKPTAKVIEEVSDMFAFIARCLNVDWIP
# Protocol: The activity of human recombinant prolyl endopeptidase (PREP) was determined photometrically using the substrate Z-Gly-Pro-pNA (Bachem, Weil am Rhein, Germany) usually at a concentration of 150 μM. As assay buffer 50 mM HEPES buffer pH 7.6, containing 200 mM NaCl, 1 mM EDTA, and 1 mM dithiothreitol was used. Release of pNA was monitored continuously at 405 nm for 15 min at 30°C in a 96-well plate reader (Spectrafluor, Tecan, Crailsheim, Germany). PREP activity was calculated from the slope of the time product curve with the help of a pNA standard. For determination of Ki values three different substrate concentrations (62.5 μM; 125 μM and 250 μM) and seven different inhibitor concentrations were analyzed. Substrate concentrations were selected to be at the Km value of Z-Gly-Pro-pNA (125 μM) as well as half and twice the Km. Data were fitted by non-linear regression to the competitive inhibitor equation (Graphit 5.0, Erithacus software).
# STAT3/p65 complex = assay: Co-immunoprecipitation of p65 and STAT3 in OSM-stimulated U343 cells; format: cell-based, human; settings: 100 ng/ml OSM, 20 μM compound, 6 h
# Protocol: Cell lysates from 4 × 10^6 U343 cells/sample were obtained as described above. From each sample 200 μg of total protein were immunoprecipitated with 2 μg rabbit anti-p65 antibody (Santa Cruz Biotechnology; Heidelberg, Germany) or A. dest. (control) overnight at 4°C. Immunoprecipitated samples were incubated with 20 μl Dynabeads Protein G (Thermo Fisher Scientific, Karlsruhe, Germany) for 1 h at 4°C. Beads were washed 3 times with 1 ml PBS. Preparation of samples for SDS-PAGE analysis was done by means of dilution with SDS-PAGE sample buffer (Invitrogen, Darmstadt, Germany), followed by denaturation at 90°C for 10 min. SDS-PAGE analysis were performed as described before.
# Normally, STAT3 is activated by phosphorylation at tyrosine 705, which induces dimerization, nuclear translocation and DNA binding. In contrast to other transcription factors like NF-κB, Creb and c/EBPb, STAT3 can not bind directly to the IL-6 promoter, because there are no STAT3 binding elements present. It is known from literature that several forms of interactions and cross talks between NF-κB and STAT3 exist. For instance, recent studies have shown a physical interaction between STAT3 and NF-κB [42, 43]. The importance of pSTAT3^S727 for protein interactions are under discussion. However, there is no information so far on the role of pSTAT3^S727 for the interaction with NF-κB. […]
# [2] = Brain bioavailability by LC-MS/MS of mouse plasma and brain samples; format: in vivo
# Protocol: Based on the results obtained from primary murine astrocytes, we reasoned that HAK compounds might also suppress elevated IL-6 expression in vivo. Therefore, bioactivity of the compound HAK-2 was analyzed in the LPS-induced mouse septic shock model. In preparation of this in vivo study, selected HAK compounds were characterized in detail concerning brain bioavailability. […] For further in vivo investigations compound HAK-2 with a logBB of -0.22 was selected.
compound,measurement,setting,value
"C[C@H](NC(=O)OCc1ccccc1)C(=O)N1CCC[C@H]1C(=O)c1nc2ccccc2s1 [HAK-2, Z-Ala-Pro-BTh]",Ki,[1],0.038 nM
same,p65-mediated STAT3 co-immunoprecipitation,STAT3/p65 complex,clear reduction
same,logBB,[2],-0.22
